Among the data in PubChem BioAssay (NCI) are GI50 and TGI values, retold here.

Holding throughout (assay): NCI anticancer screen, dose series, 48 h
The test system of experiment [1] is A549 NSCLC.
For experiment [2], the system named is CCRF-CEM leukemia.
For experiment [3], the system named is COLO 205 colon.
The subject of experiment [4] is IGROV1 ovarian.
Experiment [5] deals with NCI-H23 lung.
The test system of experiment [6] is OVCAR-8 ovarian.
The subject of experiment [7] is RPMI-8226 leukemia.
The subject of experiment [8] is SK-OV-3 ovarian.
Experiment [9] has as its system SN12C renal.
Experiment [10] has as its system SW-620 colon.

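Results reflect a 48-hour exposure of cells in 96-well plates to compound at five concentrations. GI50 marks 50% less growth. TGI: total growth inhibition.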

As for `CCCCCCCCSC1=CC(=O)c2nc3ccccc3c3ccnc1c23`, the GI50 in experiment [1] is 83.2 µM; in experiment [2] it was 60.7 µM; in experiment [3] it was above 100 µM; in experiment [4] it was above 100 µM; in experiment [5] it was 58.2 µM; in [6] it was above 100 µM. The GI50 in experiment [7] is 60.2 µM; in experiment [8], above 100 µM; in experiment [9], 14 µM; in experiment [10], above 100 µM. Moreover, the TGI in experiment [1], in experiment [2], in [3], in experiment [4], in experiment [5] and in experiment [6] was above 100 µM throughout. For the same compound, the TGI in experiment [7], in [8], in experiment [9] and in [10] was above 100 µM throughout.
For the compound `CCOc1ccccc1-n1c(CN2CCN(C(=O)COc3ccc(CNCCCCCCN4C5CCCC4CC(OC(=O)Nc4cc(C)ccc4OC)C5)cc3)CC2)nc2ccccc2c1=O` (stereo unspecified), the GI50 in [1] was 1.67 µM; in experiment [2], 0.16 µM; in experiment [3], 1.78 µM; in experiment [4] it was 1.72 µM; in experiment [5], 1.93 µM; in experiment [6], 1.83 µM. Moreover, the GI50 is 1.13 µM in [7], 1.89 µM in experiment [8], 1.76 µM in experiment [9] and 0.757 µM in experiment [10]. In addition, the TGI was found to be 3.27 µM in experiment [1]; 1.21 µM in experiment [2]; 3.69 µM in experiment [3]; 3.47 µM in experiment [4]; 3.66 µM in [5]; 3.75 µM in [6]. For the same compound, the TGI was found to be 3.4 µM in [7], 3.45 µM in experiment [8], 3.24 µM in [9] and 2 µM in [10].
With `Cc1cc(=O)n2[nH]c(-c3ccc(C(C)(C)C)cc3)cc2n1`, the GI50 was 11.6 µM in experiment [1]; 4.19 µM in experiment [2]; 11.3 µM in experiment [3]; 7.36 µM in experiment [4]; 4.03 µM in experiment [5]; 11.2 µM in experiment [6]. In addition, the GI50 in experiment [7] is 3.89 µM; in experiment [8], 6.8 µM; in experiment [9], 12.3 µM; in experiment [10], 4.4 µM. Further, the TGI in [1] is above 100 µM; in [2], above 100 µM; in experiment [3], above 100 µM; in experiment [4], above 100 µM; in experiment [5] it was 80.6 µM; in experiment [6] it was above 100 µM. Also, the TGI in [7] was 54.8 µM; in experiment [8], 86 µM; in experiment [9], above 100 µM; in [10] it was above 100 µM.
Turning to `CC(=O)[O][Hg][c]1c(N)c(C)cc(C)c1F`, the GI50 in experiment [1] is 9.72 µM; in experiment [2] it was 0.401 µM; in [3], 1.91 µM; in [4], 0.939 µM; in experiment [7], 1.81 µM; in experiment [8], 4.36 µM. The figures for the GI50 in experiment [9] and in experiment [10] were 1.36 µM and 1.44 µM, respectively. The TGI in experiment [1] is 28.8 µM; in [2] it was above 24.3 µM; in experiment [3] it was 3.53 µM; in [4] it was 2.79 µM; in experiment [7], 6 µM; in experiment [8], 15.5 µM. The TGI in [9] worked out at 2.72 µM; in experiment [10], 3.21 µM.
`CSc1ccc(/C=C2\CN(C)C/C(=C\c3ccc(SC)cc3)C2=O)cc1`: the TGI in [1] was above 100 µM; in experiment [2] it was above 100 µM; in experiment [3] it was 61.6 µM; in experiment [4], above 100 µM; in experiment [5] it was 34.5 µM; in experiment [6] it was 39.6 µM. The TGI in [7] was above 100 µM; in experiment [8], 88.1 µM; in experiment [9], 78.9 µM; in experiment [10], above 100 µM.
Turning to `COc1ccc(-c2cc(-c3ccc(Nc4nc(Nc5ccccc5)nc(Nc5ccc(Cl)cc5)n4)cc3)nc(N)c2C#N)cc1`, the GI50 is 2.74 µM in experiment [1]; 1.7 µM in experiment [2]; 1 µM in experiment [3]; 0.546 µM in experiment [4]; 1.72 µM in experiment [5]; 1.81 µM in experiment [6]. In addition, the GI50 in [7] is 0.828 µM; in experiment [8] it was above 28.3 µM; in experiment [9], 2.03 µM; in experiment [10], 1.04 µM. Further, the TGI is above 50 µM in [1]; above 50 µM in experiment [2]; 2.15 µM in [3]; 1.41 µM in experiment [4]; 13.6 µM in experiment [5]; above 50 µM in [6]. Besides, the TGI was 3.79 µM in experiment [7], above 50 µM in experiment [8], above 50 µM in experiment [9] and 2.3 µM in experiment [10].
Take `Cn1ccnc1C(=O)/C=C/c1ccc(CC(=O)Nc2ccc(Br)cc2)cc1`: the GI50 is 4.68 µM in experiment [1]; 3.04 µM in experiment [2]; 3.56 µM in [3]; 2.97 µM in experiment [4]; 2.75 µM in experiment [5]; 5.39 µM in experiment [6]. Also, the GI50 was 2.76 µM in experiment [7], 8.88 µM in experiment [8], 3.88 µM in [9] and 4.15 µM in experiment [10]. The TGI in experiment [1] was 13.2 µM; in experiment [2], above 16.7 µM; in [3] it was 8.28 µM; in experiment [4], 10.6 µM; in experiment [5], 7.1 µM; in experiment [6], above 16.7 µM. For the same compound, the TGI is 8.11 µM in experiment [7], above 16.7 µM in experiment [8], 11.1 µM in experiment [9] and 13.4 µM in [10].
`CCOC(=O)COc1cccc2c1C(=O)CCO2`: the TGI in [1], in experiment [2], in [3], in experiment [4], in experiment [5] and in experiment [6] was above 100 µM throughout. Moreover, the TGI in experiment [7], in experiment [8], in [9] and in [10] was above 100 µM throughout.
